For the test, the target named is human F508del-CFTR (Homo sapiens, UniProt P13569, DEL508-508). Nature of the test: F508del-CFTR cell surface expression (corrector activity), DiscoveRx ß-galactosidase complementation chemiluminescence assay in recombinant U2OS cell line.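 As to all read-outs here: U2OS cells co-expressing ProLink-tagged F508del-CFTR and a membrane-anchored enzyme acceptor, where more surface CFTR restores β-galactosidase activity measured by chemiluminescence.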 The note with it: for EC50: EC50, F508del-CFTR cell surface expression, U2OS cells, 16h compound incubation, geomean values; for Emax: U2OS, in relation to Emax of corrector lumacaftor (=100%), arithmetic mean values.
Chain of human F508del-CFTR (P13569 with tags, fused parts or gaps DEL508-508): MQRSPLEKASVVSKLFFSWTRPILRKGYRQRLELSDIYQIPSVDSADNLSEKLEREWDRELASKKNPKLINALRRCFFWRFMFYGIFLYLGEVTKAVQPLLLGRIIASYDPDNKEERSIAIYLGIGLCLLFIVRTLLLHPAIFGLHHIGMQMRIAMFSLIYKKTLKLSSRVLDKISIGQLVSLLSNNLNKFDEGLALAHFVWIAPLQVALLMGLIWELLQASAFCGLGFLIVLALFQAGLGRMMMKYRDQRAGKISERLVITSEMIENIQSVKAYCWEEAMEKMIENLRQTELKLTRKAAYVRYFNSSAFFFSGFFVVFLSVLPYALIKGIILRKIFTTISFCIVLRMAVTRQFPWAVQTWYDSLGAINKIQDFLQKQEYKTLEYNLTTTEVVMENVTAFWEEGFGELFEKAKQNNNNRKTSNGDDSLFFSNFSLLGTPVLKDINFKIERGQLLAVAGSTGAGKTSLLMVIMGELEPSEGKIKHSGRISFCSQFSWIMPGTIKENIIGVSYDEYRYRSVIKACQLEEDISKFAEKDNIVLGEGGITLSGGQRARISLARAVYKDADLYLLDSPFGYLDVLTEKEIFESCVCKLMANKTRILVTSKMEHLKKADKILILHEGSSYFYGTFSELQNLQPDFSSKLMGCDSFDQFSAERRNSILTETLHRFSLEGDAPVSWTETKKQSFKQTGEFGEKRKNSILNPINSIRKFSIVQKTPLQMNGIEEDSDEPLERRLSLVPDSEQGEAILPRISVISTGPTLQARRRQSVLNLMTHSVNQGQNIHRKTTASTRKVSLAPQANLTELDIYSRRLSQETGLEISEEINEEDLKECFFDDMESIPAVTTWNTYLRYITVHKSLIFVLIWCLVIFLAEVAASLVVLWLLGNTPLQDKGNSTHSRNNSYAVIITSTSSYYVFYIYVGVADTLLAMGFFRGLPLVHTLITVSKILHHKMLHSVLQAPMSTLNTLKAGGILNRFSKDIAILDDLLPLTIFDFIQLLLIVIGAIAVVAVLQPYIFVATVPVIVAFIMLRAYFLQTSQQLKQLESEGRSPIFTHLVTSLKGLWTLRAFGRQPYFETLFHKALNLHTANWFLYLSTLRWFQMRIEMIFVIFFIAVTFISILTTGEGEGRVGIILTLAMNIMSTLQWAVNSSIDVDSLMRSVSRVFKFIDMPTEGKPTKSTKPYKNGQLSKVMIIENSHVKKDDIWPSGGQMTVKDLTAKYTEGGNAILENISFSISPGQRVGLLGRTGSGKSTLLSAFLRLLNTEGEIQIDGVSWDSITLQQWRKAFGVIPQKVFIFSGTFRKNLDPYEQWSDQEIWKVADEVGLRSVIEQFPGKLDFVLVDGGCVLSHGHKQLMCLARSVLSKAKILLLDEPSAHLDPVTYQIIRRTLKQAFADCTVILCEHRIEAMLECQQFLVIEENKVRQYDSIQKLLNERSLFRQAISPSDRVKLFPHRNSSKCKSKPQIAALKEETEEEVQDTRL

Usually EC50 stands for the concentration giving half of the maximal effect. A word on the Emax: it is the greatest response seen or fitted, relative to the assay's reference. `Cc1cc(CCNC(=O)[C@@H]2CC(=O)N(C)[C@@H](CC(C)C)C(=O)N3CCNC[C@@H]3C(=O)N[C@H](Cc3ccccc3)COc3cnc4ccccc4c3C(=O)N2)on1` [Example 727, (9S,13S,19aR,22R)-22-benzyl-13-isobutyl-12-methyl-N-(2-(3-methylisoxazol-5-yl)ethyl)-7,11,14,20-tetraoxo-7,8,9,10,11,12,13,14,17,18,19,19a,20,21,22,23-hexadecahydro-16H-pyrazino[2′,1′:6,7][1]oxa[4,7,10,14]tetraazacycloheptadecino[17,16-c]quinoline-9-carboxamide]: the EC50 worked out at 5050 nM and the Emax was 138%.

With `COc1cccc(CCNC(=O)[C@@H]2CC(=O)N(C)[C@@H](CC(C)C)C(=O)N3CCN(S(=O)(=O)c4ccccc4)C[C@@H]3C(=O)N[C@H](Cc3ccccc3)COc3ccc4ccccc4c3C(=O)N2)c1` [Example 729, (4aR,7R,18S,22S)-7-benzyl-22-isobutyl-N-(3-methoxyphenethyl)-21-methyl-5,16,20,23-tetraoxo-3-(phenylsulfonyl)-2,3,4,4a,5,6,7,8,16,17,18,19,20,21,22,23-hexadecahydro-1H-naphtho[1,2-p]pyrazino[2,1-f][1]oxa[4,7,10,14]tetraazacycloheptadecine-18-carboxamide], the EC50 is 100 nM and the maximal effect (Emax) turned out to be 258%.

Consider `COc1cccc(CCNC(=O)[C@@H]2CC(=O)N(C)[C@@H](CC(C)C)C(=O)N3CCN(S(=O)(=O)CCCN4CCOCC4)C[C@@H]3C(=O)N[C@H](Cc3ccccc3)COc3ccc4ccccc4c3C(=O)N2)c1` [Example 730, (4aR,7R,18S,22S)-7-benzyl-22-isobutyl-N-(3-methoxyphenethyl)-21-methyl-3-((3-morpholinopropyl)sulfonyl)-5,16,20,23-tetraoxo-2,3,4,4a,5,6,7,8,16,17,18,19,20,21,22,23-hexadecahydro-1H-naphtho[1,2-p]pyrazino[2,1-f][1]oxa[4,7,10,14]tetraazacycloheptadecine-18-carboxamide], for which the EC50 was determined as 593 nM and the Emax was 248%.

As for `COc1cccc(CCNC(=O)[C@@H]2CC(=O)N(C)[C@@H](CC(C)C)C(=O)N3CCN(S(C)(=O)=O)C[C@@H]3C(=O)N[C@H](Cc3ccccc3)COc3ccc4ccccc4c3C(=O)N2)c1` [Example 731, (4aR,7R,18S,22S)-7-benzyl-22-isobutyl-N-(3-methoxyphenethyl)-21-methyl-3-(methylsulfonyl)-5,16,20,23-tetraoxo-2,3,4,4a,5,6,7,8,16,17,18,19,20,21,22,23-hexadecahydro-1H-naphtho[1,2-p]pyrazino[2,1-f][1]oxa[4,7,10,14]tetraazacycloheptadecine-18-carboxamide], the EC50 was determined as 381 nM and the Emax was 248%.

In the case of `COc1cccc(CCNC(=O)[C@@H]2CC(=O)N(C)[C@@H](CC(C)C)C(=O)N3CCN(S(=O)(=O)c4cccc(OC(F)(F)F)c4)C[C@@H]3C(=O)N[C@H](Cc3ccccc3)COc3ccc4ccccc4c3C(=O)N2)c1` [Example 732, (4aR,7R,18S,22S)-7-benzyl-22-isobutyl-N-(3-methoxyphenethyl)-21-methyl-5,16,20,23-tetraoxo-3-((3-(trifluoromethoxy)phenyl)sulfonyl)-2,3,4,4a,5,6,7,8,16,17,18,19,20,21,22,23-hexadecahydro-1H-naphtho[1,2-p]pyrazino[2,1-f][1]oxa[4,7,10,14]tetraazacycloheptadecine-18-carboxamide], the concentration for a half-maximal effect (EC50) was found to be 64 nM and the Emax was found to be 239%.

For the molecule `COCCS(=O)(=O)N1CCN2C(=O)[C@H](CC(C)C)N(C)C(=O)C[C@@H](C(=O)NCCc3cccc(OC)c3)NC(=O)c3c(ccc4ccccc34)OC[C@@H](Cc3ccccc3)NC(=O)[C@H]2C1` [Example 733, (4aR,7R,18S,22S)-7-benzyl-22-isobutyl-3-((2-methoxyethyl)sulfonyl)-N-(3-methoxyphenethyl)-21-methyl-5,16,20,23-tetraoxo-2,3,4,4a,5,6,7,8,16,17,18,19,20,21,22,23-hexadecahydro-1H-naphtho[1,2-p]pyrazino[2,1-f][1]oxa[4,7,10,14]tetraazacycloheptadecine-18-carboxamide], the concentration for a half-maximal effect (EC50) stood at 349 nM and the Emax turned out to be 235%.

Turning to `COc1cccc(CCNC(=O)[C@@H]2CC(=O)N(C)[C@@H](CC(C)C)C(=O)N3CCN(S(=O)(=O)C4CCOCC4)C[C@@H]3C(=O)N[C@H](Cc3ccccc3)COc3ccc4ccccc4c3C(=O)N2)c1` [Example 734, (4aR,7R,18S,22S)-7-benzyl-22-isobutyl-N-(3-methoxyphenethyl)-21-methyl-5,16,20,23-tetraoxo-3-((tetrahydro-2H-pyran-4-yl)sulfonyl)-2,3,4,4a,5,6,7,8,16,17,18,19,20,21,22,23-hexadecahydro-1H-naphtho[1,2-p]pyrazino[2,1-f][1]oxa[4,7,10,14]tetraazacycloheptadecine-18-carboxamide], the 50% effective concentration (EC50) stood at 299 nM and the maximal response (Emax) came to 325%.

Consider `COc1cccc(CCNC(=O)[C@@H]2CC(=O)N(C)[C@@H](CC(C)C)C(=O)N3CCN(S(=O)(=O)CCN(C)C)C[C@@H]3C(=O)N[C@H](Cc3ccccc3)COc3ccc4ccccc4c3C(=O)N2)c1` [Example 735, (4aR,7R,18S,22S)-7-benzyl-3-((2-(dimethylamino)ethyl)sulfonyl)-22-isobutyl-N-(3-methoxyphenethyl)-21-methyl-5,16,20,23-tetraoxo-2,3,4,4a,5,6,7,8,16,17,18,19,20,21,22,23-hexadecahydro-1H-naphtho[1,2-p]pyrazino[2,1-f][1]oxa[4,7,10,14]tetraazacycloheptadecine-18-carboxamide], for which the 50% effective concentration (EC50) turned out to be 314 nM and the maximal effect (Emax) was 176%.

Turning to `COc1cccc(CCNC(=O)[C@@H]2CC(=O)N(C)[C@@H](CC(C)C)C(=O)N3CCN(S(=O)(=O)Cc4ccccc4)C[C@@H]3C(=O)N[C@H](Cc3ccccc3)COc3ccc4ccccc4c3C(=O)N2)c1` [Example 736, (4aR,7R,18S,22S)-7-benzyl-3-(benzylsulfonyl)-22-isobutyl-N-(3-methoxyphenethyl)-21-methyl-5,16,20,23-tetraoxo-2,3,4,4a,5,6,7,8,16,17,18,19,20,21,22,23-hexadecahydro-1H-naphtho[1,2-p]pyrazino[2,1-f][1]oxa[4,7,10,14]tetraazacycloheptadecine-18-carboxamide], the half-maximal effective concentration (EC50) came out at 153 nM and the Emax came out at 286%.

As to `COc1cccc(CCNC(=O)[C@@H]2CC(=O)N(C)[C@@H](CC(C)C)C(=O)N3CCN(S(=O)(=O)c4ccc5oc(=O)[nH]c5c4)C[C@@H]3C(=O)N[C@H](Cc3ccccc3)COc3ccc4ccccc4c3C(=O)N2)c1` [Example 737, (4aR,7R,18S,22S)-7-benzyl-22-isobutyl-N-(3-methoxyphenethyl)-21-methyl-5,16,20,23-tetraoxo-3-((2-oxo-2,3-dihydrobenzo[d]oxazol-5-yl)sulfonyl)-2,3,4,4a,5,6,7,8,16,17,18,19,20,21,22,23-hexadecahydro-1H-naphtho[1,2-p]pyrazino[2,1-f][1]oxa[4,7,10,14]tetraazacycloheptadecine-18-carboxamide], the 50% effective concentration (EC50) was 665 nM and the Emax was found to be 298%.

`COc1cccc(CCNC(=O)[C@@H]2CC(=O)N(C)[C@@H](CC(C)C)C(=O)N3CCN(S(=O)(=O)Cc4cccc5cccnc45)C[C@@H]3C(=O)N[C@H](Cc3ccccc3)COc3ccc4ccccc4c3C(=O)N2)c1` [Example 738, (4aR,7R,18S,22S)-7-benzyl-22-isobutyl-N-(3-methoxyphenethyl)-21-methyl-5,16,20,23-tetraoxo-3-((quinolin-8-ylmethyl)sulfonyl)-2,3,4,4a,5,6,7,8,16,17,18,19,20,21,22,23-hexadecahydro-1H-naphtho[1,2-p]pyrazino[2,1-f][1]oxa[4,7,10,14]tetraazacycloheptadecine-18-carboxamide]: the concentration giving a half-maximal response (EC50) amounted to 110 nM and the Emax was found to be 256%.

As to `COc1cccc(CCNC(=O)[C@@H]2CC(=O)N(C)[C@@H](CC(C)C)C(=O)N3CCN(S(=O)(=O)c4cccc(OC)c4)C[C@@H]3C(=O)N[C@H](Cc3ccccc3)COc3ccc4ccccc4c3C(=O)N2)c1` [Example 739, (4aR,7R,18S,22S)-7-benzyl-22-isobutyl-N-(3-methoxyphenethyl)-3-((3-methoxyphenyl)sulfonyl)-21-methyl-5,16,20,23-tetraoxo-2,3,4,4a,5,6,7,8,16,17,18,19,20,21,22,23-hexadecahydro-1H-naphtho[1,2-p]pyrazino[2,1-f][1]oxa[4,7,10,14]tetraazacycloheptadecine-18-carboxamide], the half-maximal effective concentration (EC50) is 101 nM and the maximum response (Emax) worked out at 297%.

For `COc1cccc(CCNC(=O)[C@@H]2CC(=O)N(C)[C@@H](CC(C)C)C(=O)N3CCN(S(=O)(=O)c4cc(OC)ccc4F)C[C@@H]3C(=O)N[C@H](Cc3ccccc3)COc3ccc4ccccc4c3C(=O)N2)c1` [Example 740, (4aR,7R,18S,22S)-7-benzyl-3-((2-fluoro-5-methoxyphenyl)sulfonyl)-22-isobutyl-N-(3-methoxyphenethyl)-21-methyl-5,16,20,23-tetraoxo-2,3,4,4a,5,6,7,8,16,17,18,19,20,21,22,23-hexadecahydro-1H-naphtho[1,2-p]pyrazino[2,1-f][1]oxa[4,7,10,14]tetraazacycloheptadecine-18-carboxamide], the half-maximal effective concentration (EC50) stood at 111 nM and the Emax amounted to 280%.

For `COc1cccc(CCNC(=O)[C@@H]2CC(=O)N(C)[C@@H](CC(C)C)C(=O)N3CCN(S(=O)(=O)c4ccc5c(c4)OCCN5C)C[C@@H]3C(=O)N[C@H](Cc3ccccc3)COc3ccc4ccccc4c3C(=O)N2)c1` [Example 741, (4aR,7R,18S,22S)-7-benzyl-22-isobutyl-N-(3-methoxyphenethyl)-21-methyl-3-((4-methyl-3,4-dihydro-2H-benzo[b][1,4]oxazin-7-yl)sulfonyl)-5,16,20,23-tetraoxo-2,3,4,4a,5,6,7,8,16,17,18,19,20,21,22,23-hexadecahydro-1H-naphtho[1,2-p]pyrazino[2,1-f][1]oxa[4,7,10,14]tetraazacycloheptadecine-18-carboxamide], the EC50 was 116 nM and the Emax was 294%.
